Measurements taken from US8609084B2, “Protection of plants against their pathogenic agents” (Lesaffre et Compagnie, priority 2005, dated 2013).

System: Venturia inaequalis
Assay: Efficiency against scab, grafted apple plants in pots
Assay type: in vivo
Design: Efficiency (%) Leaves treated / Efficiency (%) All leaves / Efficiency (%) New leaves: concentration or dose not given beside the values
Protocol: The test was carried out on grafted plants, in pots. Three species were used: ‘Reinette des Capucins’, ‘Jonagold’, and ‘Reinette de Waleffe’, grafted on M9 rootstock. The plants were grown under a plastic tunnel at different times, so that they were all at the same stage at the time of the trial: starting with Reinette de Waleffe, then 15 days later, Reinette des Capucins, then 1 week later, Jonagold.
The plants were labelled with the variety and the method of treatment received before inoculation.
The method of treatment, preparation of the inoculum, inoculation and observations are similar to those described in example 1.
The plants were treated twice, successively, 10 days apart. The day following the second treatment, the last extended leaf ? F1 ? was identified.
Two days after the second treatment, the pathogen (Venturia inaequalis) was inoculated using a dose of 1.5×10^5 conidia/ml, directly in the moist room. Inoculation is followed by a 48 hours incubation in moist room at 18° C., then the plants remained in the boxes with a temperature of 18°±2° C. and a relative humidity of 80±10%.
The study was organised as follows:
The OY2 yeast cell walls correspond to an acqueous suspension at 25 mg/l of the Springcell 8001 product from Biospringer SAS, (Maisons-Alfort), France), with 96% cell walls of dry matter content.
The observations were made on the 21st day after the inoculation of the last 2 treated leaves (F2 and F1) and on the leaf newly formed after treatment (F0) for about 25 leaves per subject.
An observation at 41 days after the treatment gave the following results.
At this time, new leaves had extended: F-1 and F-2, and the disease progressed by natural contamination, without any re-inoculation.

[1] = All varieties, 21st day after inoculation
[2] = All varieties, 41 days after the treatment
[3] = Capucins, 21st day after inoculation
[4] = Capucins, 41 days after the treatment
[5] = Jonagold, 21st day after inoculation
[6] = Jonagold, 41 days after the treatment
[7] = Waleffe, 21st day after inoculation
[8] = Waleffe, 41 days after the treatment

SMILES: CC(N)CC(=O)O (stereo not drawn) [baba, β-aminobutyric acid]
- Efficiency (%) All leaves [1]: 47.2%
- Efficiency (%) F0 [1]: 27.0%
- Efficiency (%) F1 [1]: 47.1%
- Efficiency (%) F2 [1]: 67.6%
- Efficiency (%) Leaves treated [1]: 57.4%
- Sporulant surface/leaf (%) F0 [1]: 13.0%
- Sporulant surface/leaf (%) F1 [1]: 15.4%
- Sporulant surface/leaf (%) F2 [1]: 9.6%
- Efficiency (%) All leaves [2]: 54.2%
- Efficiency (%) New leaves [2]: 40.1%
- Efficiency (%) Treated leaves [2]: 68.1%
- Sporulant surface/leaf (%) F0 [2]: 31.0%
- Sporulant surface/leaf (%) F1 [2]: 26.7%
- Sporulant surface/leaf (%) F2 [2]: 10.0%
- Sporulant surface/leaf (%) F-1 [2]: 28.2%
- Sporulant surface/leaf (%) F-2 [2]: 8.6%
- Efficiency (%) All leaves [3]: 60.3%
- Efficiency (%) F0 [3]: 45.3%
- Efficiency (%) F1 [3]: 59.8%
- Efficiency (%) F2 [3]: 75.8%
- Efficiency (%) Leaves treated [3]: 67.8%
- Sporulant surface/leaf (%) F0 [3]: 4.3%
- Sporulant surface/leaf (%) F1 [3]: 8.0%
- Sporulant surface/leaf (%) F2 [3]: 4.2%
- Efficiency (%) All leaves [4]: 77.1%
- Efficiency (%) New leaves [4]: 55.5%
- Efficiency (%) Treated leaves [4]: 88.2%
- Sporulant surface/leaf (%) F0 [4]: 14.07%
- Sporulant surface/leaf (%) F1 [4]: 10.62%
- Sporulant surface/leaf (%) F2 [4]: 4.00%
- Sporulant surface/leaf (%) F-1 [4]: 9.95%
- Sporulant surface/leaf (%) F-2 [4]: 4.00%
- Efficiency (%) All leaves [5]: 57.9%
- Efficiency (%) F0 [5]: 38.0%
- Efficiency (%) F1 [5]: 50.5%
- Efficiency (%) F2 [5]: 85.1%
- Efficiency (%) Leaves treated [5]: 67.8%
- Sporulant surface/leaf (%) F0 [5]: 13.9%
- Sporulant surface/leaf (%) F1 [5]: 17.9%
- Sporulant surface/leaf (%) F2 [5]: 6.0%
- Efficiency (%) All leaves [6]: 57.7%
- Efficiency (%) New leaves [6]: 49.0%
- Efficiency (%) Treated leaves [6]: 67.8%
- Sporulant surface/leaf (%) F0 [6]: 37.79%
- Sporulant surface/leaf (%) F1 [6]: 27.57%
- Sporulant surface/leaf (%) F2 [6]: 10.57%
- Sporulant surface/leaf (%) F-1 [6]: 29.57%
- Sporulant surface/leaf (%) F-2 [6]: 3.43%
- Efficiency (%) All leaves [7]: 28.6%
- Efficiency (%) F0 [7]: 10.3%
- Efficiency (%) F1 [7]: 35.2%
- Efficiency (%) F2 [7]: 40.3%
- Efficiency (%) Leaves treated [7]: 37.8%
- Sporulant surface/leaf (%) F0 [7]: 20.9%
- Sporulant surface/leaf (%) F1 [7]: 20.4%
- Sporulant surface/leaf (%) F2 [7]: 18.6%
- Efficiency (%) All leaves [8]: 33.0%
- Efficiency (%) New leaves [8]: 24.0%
- Efficiency (%) Treated leaves [8]: 44.8%
- Sporulant surface/leaf (%) F0 [8]: 41.05%
- Sporulant surface/leaf (%) F1 [8]: 42.00%
- Sporulant surface/leaf (%) F2 [8]: 15.55%
- Sporulant surface/leaf (%) F-1 [8]: 45.16%
- Sporulant surface/leaf (%) F-2 [8]: 18.42%
